ChEMBL document CHEMBL1201862, “PubChem BioAssay data set” (2004)
Active and inactive are the calls of the source.

Experiments:
Exodeoxyribonuclease V = Exodeoxyribonuclease V (Escherichia coli (strain K12), UniProt P04993+P07648+P08394); experiment: E. coli RecBCD inhibitors, dose response, counter-screen for AddAB inhibitor project, absorbance, V66 E. coli, mutant T4 phage (AID 492957); format: functional, cell-based, Escherichia coli str. K-12 substr. MG1655
[1] = Counterscreen for AddAB inhibitors: absorbance-based bacterial cell-based high throughput dose response assay for inhibitors of bacterial viability. [Related pubchem assays (depositor defined):AID435030, AID449728, AID449731, AID488942, AID488955, AID488956]; format: functional
[2] = molecular target: DNA damage-inducible transcript 3 protein (Mus musculus, UniProt P35639); format: functional, Cricetulus griseus
Sequence of DNA damage-inducible transcript 3 protein (P35639 whole entry): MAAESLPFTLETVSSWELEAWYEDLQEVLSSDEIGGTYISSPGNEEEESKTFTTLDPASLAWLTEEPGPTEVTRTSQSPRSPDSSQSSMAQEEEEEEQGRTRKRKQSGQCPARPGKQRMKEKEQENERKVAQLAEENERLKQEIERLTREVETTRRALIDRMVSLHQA

Coagulation factor XII = molecular target: T1, Coagulation factor XII (Homo sapiens, UniProt P00748); experiment: FXIIa inhibitor potency, concentration-response, biochemical (AID 716); format: functional
T1 sequence (P00748 whole entry): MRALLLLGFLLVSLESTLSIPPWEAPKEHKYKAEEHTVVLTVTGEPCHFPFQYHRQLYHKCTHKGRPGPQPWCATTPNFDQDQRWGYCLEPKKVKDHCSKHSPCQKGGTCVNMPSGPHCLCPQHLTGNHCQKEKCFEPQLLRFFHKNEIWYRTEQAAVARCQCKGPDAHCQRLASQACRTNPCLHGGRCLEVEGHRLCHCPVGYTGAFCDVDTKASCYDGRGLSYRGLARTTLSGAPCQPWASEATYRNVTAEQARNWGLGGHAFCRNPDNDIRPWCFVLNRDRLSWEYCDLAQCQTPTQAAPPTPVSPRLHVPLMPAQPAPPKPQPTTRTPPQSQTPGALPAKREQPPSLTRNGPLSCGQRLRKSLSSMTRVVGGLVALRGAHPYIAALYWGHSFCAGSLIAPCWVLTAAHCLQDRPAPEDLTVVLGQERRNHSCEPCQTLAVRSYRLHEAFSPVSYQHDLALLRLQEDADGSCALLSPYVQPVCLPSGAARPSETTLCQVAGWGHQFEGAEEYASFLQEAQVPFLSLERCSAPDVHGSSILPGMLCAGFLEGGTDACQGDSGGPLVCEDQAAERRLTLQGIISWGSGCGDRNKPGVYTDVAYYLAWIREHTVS

[3] = molecular target: T2, Voltage-gated N-type calcium channel alpha-1B subunit/Amyloid beta A4 precursor protein-binding family A member 1 (Homo sapiens, UniProt Q00975+Q02410); format: protein assay
[4] = molecular target: T2, Voltage-gated N-type calcium channel alpha-1B subunit/Amyloid beta A4 precursor protein-binding family A member 1; format: protein assay; remark: listed apart in the source
[5] = molecular target: T3, E3 ubiquitin-protein ligase XIAP (Homo sapiens, UniProt P98170); experiment: Counter Screen using XIAP-Bir3 for Chemical Antagonists of Bir1/2 domains of IAP-family anti-apoptotic proteins. [Related pubchem assays (depositor defined):AID1018, AID1449, AID1514, AID1638, AID1749, AID1750, AID488957, AID488963]
T3 sequence (P98170 whole entry): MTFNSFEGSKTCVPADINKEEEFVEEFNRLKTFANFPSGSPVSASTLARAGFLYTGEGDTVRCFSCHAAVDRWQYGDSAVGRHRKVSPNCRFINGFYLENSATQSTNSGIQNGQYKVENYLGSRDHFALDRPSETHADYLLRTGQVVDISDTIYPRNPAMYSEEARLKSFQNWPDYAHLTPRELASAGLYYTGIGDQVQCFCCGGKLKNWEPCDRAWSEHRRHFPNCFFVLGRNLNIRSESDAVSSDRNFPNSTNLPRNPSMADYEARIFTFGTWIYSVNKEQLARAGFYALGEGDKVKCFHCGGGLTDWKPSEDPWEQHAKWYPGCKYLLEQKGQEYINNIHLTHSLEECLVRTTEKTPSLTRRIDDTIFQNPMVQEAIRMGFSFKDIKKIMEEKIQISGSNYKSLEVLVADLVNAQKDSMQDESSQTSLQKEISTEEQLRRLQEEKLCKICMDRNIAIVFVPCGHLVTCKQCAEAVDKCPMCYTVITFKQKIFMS

[6] = molecular target: T3, E3 ubiquitin-protein ligase XIAP; experiment: XIAP antagonists, biochemical, IAP family, fluorescence polarization (AID 1018); format: functional
[7] = molecular target: T4, Rac GTPase-activating protein 1 (Homo sapiens, UniProt Q9H0H5); experiment: MgcRacGAP GTPase-activating activity inhibitors, confirmation, biochemical, ADP Hunter fluorescence, primary and confirmatory (AID 624330); format: functional
T4 sequence (Q9H0H5 whole entry): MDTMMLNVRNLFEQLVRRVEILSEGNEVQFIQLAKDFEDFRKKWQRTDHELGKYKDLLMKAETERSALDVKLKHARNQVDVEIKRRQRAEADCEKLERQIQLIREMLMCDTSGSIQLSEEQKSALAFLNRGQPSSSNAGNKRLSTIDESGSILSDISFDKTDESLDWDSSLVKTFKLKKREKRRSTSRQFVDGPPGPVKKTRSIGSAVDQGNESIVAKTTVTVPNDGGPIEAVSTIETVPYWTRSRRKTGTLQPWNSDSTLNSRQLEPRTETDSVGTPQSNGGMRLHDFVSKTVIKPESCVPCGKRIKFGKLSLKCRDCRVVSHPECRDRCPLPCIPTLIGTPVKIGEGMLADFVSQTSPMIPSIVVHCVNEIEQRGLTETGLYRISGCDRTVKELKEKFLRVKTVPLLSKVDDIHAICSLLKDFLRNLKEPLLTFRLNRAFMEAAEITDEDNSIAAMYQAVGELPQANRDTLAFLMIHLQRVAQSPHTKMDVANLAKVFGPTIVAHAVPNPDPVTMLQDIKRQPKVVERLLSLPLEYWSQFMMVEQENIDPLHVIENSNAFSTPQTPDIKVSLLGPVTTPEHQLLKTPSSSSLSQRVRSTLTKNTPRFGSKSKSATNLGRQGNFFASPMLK

Troponin, cardiac muscle = Troponin, cardiac muscle (Homo sapiens, UniProt P19429+P45379+P63316); experiment: Fluorescence-based biochemical high throughput dose response assay for activators of the calcium sensitivity of cardiac Regulated Thin Filaments (RTF). [Related pubchem assays (depositor defined):AID493008, AID493018, AID504382, AID504383]; format: protein-complex assay
[8] = molecular target: Peroxisome proliferator-activated receptor gamma/Nuclear receptor coactivator 1 (Homo sapiens, UniProt P37231); experiment: (§1) TR-FRET dose response biochemical High Throughput Screening assay for agonists of the steroid receptor coactivator 1 (SRC-1) recruitment by the peroxisome proliferator-activated receptor gamma (PPAR gamma): non-selective agonists. [Related pubchem assays (depositor defined):AID1300, AID1808, AID504735, AID631]; format: protein assay
[9] = molecular target: Peroxisome proliferator-activated receptor gamma/Nuclear receptor coactivator 3 (Homo sapiens, UniProt P37231); experiment: as §1, with “3 (SRC-3)” for “1 (SRC-1)”, “assays: 1301 (Confirmation screen.), 1048 (Primary screen.)]” for “assays (depositor defined):AID1300, AID1808, AID504735, AID631]”; format: functional
[10] = molecular target: Peroxisome proliferator-activated receptor gamma/Nuclear receptor coactivator 2 (Homo sapiens, UniProt P37231); experiment: TR-FRET dose response biochemical High Throughput Screening assay for agonists of the steroid receptor coactivator 2 (SRC-2) recruitment by the peroxisome proliferator-activated receptor gamma (PPAR gamma): non-selective agonists. [Related pubchem assays: 1297, 1032 ]; format: functional
[11] = molecular target: Glyceraldehyde-3-phosphate dehydrogenase (Homo sapiens, UniProt P04406)
Sequence of Glyceraldehyde-3-phosphate dehydrogenase (P04406 whole entry): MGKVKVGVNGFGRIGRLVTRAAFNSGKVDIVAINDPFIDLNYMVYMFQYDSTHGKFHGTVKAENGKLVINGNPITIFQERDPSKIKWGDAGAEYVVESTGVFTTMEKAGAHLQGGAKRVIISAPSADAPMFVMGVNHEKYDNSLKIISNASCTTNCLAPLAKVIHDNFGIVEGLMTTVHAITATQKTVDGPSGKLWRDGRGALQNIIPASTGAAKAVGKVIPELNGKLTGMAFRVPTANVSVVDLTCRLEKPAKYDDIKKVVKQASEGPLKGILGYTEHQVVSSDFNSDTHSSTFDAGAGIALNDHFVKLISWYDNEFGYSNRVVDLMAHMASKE

[12] = molecular target: Alkaline phosphatase, placental type (Homo sapiens, UniProt P05187); experiment: PLAP enzyme inhibitors, confirmation, biochemical, luminescence (AID 1512); format: functional
Sequence of Alkaline phosphatase, placental type (P05187 whole entry): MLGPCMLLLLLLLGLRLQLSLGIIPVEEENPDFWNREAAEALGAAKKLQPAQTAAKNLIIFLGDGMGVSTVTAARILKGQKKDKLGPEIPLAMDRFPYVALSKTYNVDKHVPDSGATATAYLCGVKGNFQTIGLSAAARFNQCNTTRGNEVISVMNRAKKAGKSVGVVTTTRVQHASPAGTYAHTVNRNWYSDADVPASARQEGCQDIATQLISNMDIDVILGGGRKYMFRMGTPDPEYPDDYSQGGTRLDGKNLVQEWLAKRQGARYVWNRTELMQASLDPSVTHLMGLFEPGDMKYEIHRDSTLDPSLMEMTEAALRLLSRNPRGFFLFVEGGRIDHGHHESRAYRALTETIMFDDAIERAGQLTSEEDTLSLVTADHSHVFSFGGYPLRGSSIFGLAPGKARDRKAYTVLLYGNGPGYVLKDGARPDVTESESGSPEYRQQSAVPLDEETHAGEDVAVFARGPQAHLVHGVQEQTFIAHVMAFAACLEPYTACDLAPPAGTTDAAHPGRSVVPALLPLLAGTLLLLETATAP

[13] = molecular target: T5, Alkaline phosphatase, tissue-nonspecific isozyme (Homo sapiens, UniProt P05186); experiment: human TNAP enzyme inhibitors, SAR follow-up, biochemical, luminescent, dose response (AID 1056)
T5 sequence (P05186 whole entry): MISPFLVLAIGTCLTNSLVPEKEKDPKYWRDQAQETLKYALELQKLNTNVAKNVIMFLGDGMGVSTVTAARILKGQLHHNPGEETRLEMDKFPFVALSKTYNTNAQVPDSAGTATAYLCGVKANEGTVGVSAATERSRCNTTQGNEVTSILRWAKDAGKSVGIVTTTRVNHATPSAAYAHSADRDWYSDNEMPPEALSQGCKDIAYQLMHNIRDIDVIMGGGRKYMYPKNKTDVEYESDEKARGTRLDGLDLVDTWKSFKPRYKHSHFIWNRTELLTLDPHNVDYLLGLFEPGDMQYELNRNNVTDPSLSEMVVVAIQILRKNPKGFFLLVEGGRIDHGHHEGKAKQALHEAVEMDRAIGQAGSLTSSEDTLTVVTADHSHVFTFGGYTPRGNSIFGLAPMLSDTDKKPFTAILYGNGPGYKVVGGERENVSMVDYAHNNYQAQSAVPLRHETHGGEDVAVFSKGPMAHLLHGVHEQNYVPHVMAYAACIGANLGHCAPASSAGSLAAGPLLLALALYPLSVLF

Sequence of Exodeoxyribonuclease V (P04993 whole entry): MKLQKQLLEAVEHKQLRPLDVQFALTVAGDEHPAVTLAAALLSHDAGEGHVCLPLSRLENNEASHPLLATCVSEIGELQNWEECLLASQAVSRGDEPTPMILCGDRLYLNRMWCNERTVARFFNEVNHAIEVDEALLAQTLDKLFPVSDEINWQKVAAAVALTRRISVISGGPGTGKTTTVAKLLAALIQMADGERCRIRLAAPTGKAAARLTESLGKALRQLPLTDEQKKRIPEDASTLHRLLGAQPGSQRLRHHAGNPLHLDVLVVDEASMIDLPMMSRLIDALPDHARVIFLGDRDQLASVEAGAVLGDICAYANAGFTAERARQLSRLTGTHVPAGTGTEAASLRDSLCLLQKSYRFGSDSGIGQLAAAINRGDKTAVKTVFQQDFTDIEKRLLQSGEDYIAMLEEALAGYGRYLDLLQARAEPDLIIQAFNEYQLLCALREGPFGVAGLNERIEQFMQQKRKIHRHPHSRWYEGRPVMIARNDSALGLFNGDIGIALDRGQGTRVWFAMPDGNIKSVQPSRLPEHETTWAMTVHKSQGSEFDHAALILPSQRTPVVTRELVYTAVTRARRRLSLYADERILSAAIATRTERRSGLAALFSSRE
Sequence of Exodeoxyribonuclease V (P07648 whole entry): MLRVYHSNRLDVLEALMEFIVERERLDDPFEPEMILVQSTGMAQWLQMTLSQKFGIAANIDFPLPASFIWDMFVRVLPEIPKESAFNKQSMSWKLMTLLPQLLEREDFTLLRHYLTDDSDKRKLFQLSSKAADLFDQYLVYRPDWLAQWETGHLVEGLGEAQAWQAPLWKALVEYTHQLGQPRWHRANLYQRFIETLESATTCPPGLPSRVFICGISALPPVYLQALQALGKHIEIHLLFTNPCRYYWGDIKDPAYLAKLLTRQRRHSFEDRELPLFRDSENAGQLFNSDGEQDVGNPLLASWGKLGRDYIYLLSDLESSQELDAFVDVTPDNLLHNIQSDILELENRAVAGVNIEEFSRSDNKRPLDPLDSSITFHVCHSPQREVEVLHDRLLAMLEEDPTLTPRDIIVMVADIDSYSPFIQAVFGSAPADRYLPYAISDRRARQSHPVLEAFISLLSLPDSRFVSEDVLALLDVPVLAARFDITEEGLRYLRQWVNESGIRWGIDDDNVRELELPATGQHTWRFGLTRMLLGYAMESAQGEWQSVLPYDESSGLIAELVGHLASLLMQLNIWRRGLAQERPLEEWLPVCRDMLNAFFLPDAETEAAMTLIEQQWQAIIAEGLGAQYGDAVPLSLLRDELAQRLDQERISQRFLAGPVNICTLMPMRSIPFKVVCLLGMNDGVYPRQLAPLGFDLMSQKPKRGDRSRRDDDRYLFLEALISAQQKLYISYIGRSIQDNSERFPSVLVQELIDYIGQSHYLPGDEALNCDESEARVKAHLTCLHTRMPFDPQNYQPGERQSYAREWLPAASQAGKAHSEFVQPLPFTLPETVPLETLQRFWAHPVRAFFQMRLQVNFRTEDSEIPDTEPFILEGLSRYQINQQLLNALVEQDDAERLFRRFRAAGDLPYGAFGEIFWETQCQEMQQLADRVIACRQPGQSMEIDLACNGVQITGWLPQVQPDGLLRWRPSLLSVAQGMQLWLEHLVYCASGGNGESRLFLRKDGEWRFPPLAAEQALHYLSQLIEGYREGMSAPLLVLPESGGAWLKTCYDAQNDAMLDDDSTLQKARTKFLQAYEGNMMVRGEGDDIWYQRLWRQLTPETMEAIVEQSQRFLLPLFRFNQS
Sequence of Exodeoxyribonuclease V (P08394 whole entry): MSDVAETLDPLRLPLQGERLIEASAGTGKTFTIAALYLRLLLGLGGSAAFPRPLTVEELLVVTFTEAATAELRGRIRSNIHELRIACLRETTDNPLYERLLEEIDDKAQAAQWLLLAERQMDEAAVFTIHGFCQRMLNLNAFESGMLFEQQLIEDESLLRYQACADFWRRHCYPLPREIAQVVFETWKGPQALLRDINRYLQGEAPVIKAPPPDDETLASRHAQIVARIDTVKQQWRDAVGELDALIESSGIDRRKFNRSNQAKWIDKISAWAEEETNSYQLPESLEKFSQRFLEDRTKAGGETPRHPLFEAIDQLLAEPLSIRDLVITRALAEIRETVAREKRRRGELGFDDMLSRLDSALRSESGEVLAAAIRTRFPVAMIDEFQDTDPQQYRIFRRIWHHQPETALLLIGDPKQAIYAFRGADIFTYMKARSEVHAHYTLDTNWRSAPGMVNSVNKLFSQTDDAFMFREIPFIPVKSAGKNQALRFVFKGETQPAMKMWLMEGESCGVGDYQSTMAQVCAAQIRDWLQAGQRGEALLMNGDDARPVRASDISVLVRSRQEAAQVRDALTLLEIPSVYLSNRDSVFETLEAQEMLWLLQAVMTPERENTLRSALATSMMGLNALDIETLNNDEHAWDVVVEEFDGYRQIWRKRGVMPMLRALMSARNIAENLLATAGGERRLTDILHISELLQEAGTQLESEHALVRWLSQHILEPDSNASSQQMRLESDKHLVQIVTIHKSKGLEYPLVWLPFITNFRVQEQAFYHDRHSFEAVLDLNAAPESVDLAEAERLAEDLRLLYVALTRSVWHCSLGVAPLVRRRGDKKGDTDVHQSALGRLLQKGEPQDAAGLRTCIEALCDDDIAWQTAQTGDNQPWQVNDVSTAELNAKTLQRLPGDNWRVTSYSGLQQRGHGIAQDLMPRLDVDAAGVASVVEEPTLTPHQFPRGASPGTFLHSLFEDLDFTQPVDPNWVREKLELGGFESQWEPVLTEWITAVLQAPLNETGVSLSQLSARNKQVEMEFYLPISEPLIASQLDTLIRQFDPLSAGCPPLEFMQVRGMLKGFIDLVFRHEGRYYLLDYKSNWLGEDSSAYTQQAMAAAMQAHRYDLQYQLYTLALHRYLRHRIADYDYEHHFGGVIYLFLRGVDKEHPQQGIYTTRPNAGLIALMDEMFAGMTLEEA

For `O=C(CSc1nc2ccccc2s1)Nc1ccc(N2CCOCC2)c(Cl)c1`, the IC50 (Exodeoxyribonuclease V) was > 119 µM (inactive) and the IC50 [1] was > 119 µM (inactive).

In the case of `CCCCNS(=O)(=O)c1ccc2nc(-c3cccnc3)cc(C(=O)NC3CCCC3)c2c1`, the “Absolute IC50 (CHOP)” value [2] is reported as 10 µM.

With `COC(=O)COc1cccc(-n2cnnn2)c1` the IC50 (Coagulation factor XII) was > 50 µM (inactive).

In the case of `COC(=O)c1ccc(COc2ccc(/C=N/Nc3nc(C)cc(O)n3)cc2)cc1`, the IC50 [3] is reported as > 56.8 µM (not active) and the IC50 [4] is reported as > 50 µM (inactive).

In the case of `O=C(CCC1CCCC1)NNC(=O)c1cc2ccccc2cc1O`, the IC50 (Exodeoxyribonuclease V) is reported as > 119 µM (inactive) and the IC50 [1] is reported as > 119 µM (inactive).

In the case of `O=C(/C=C/Nc1ccc(Nc2ccccc2)cc1)c1cccs1`, the IC50 [5] is reported as > 100 µM (inactive), the IC50 [6] is reported as > 100 µM (not active) and the IC50 [7] is reported as 230 µM (active).

In the case of `CCCN1CCc2c(sc(NC(=S)NC(=O)c3ccccc3)c2C#N)C1`, the EC50 (Troponin, cardiac muscle) is reported as 3.73 µM (active).

In the case of `C=CCOC(=O)C1=C(C)N=C(C)/C(=C(/O)OCC=C)C1c1ccc(O)cc1` (centres undefined), the IC50 (Coagulation factor XII) is reported as > 50 µM (inactive).

For `Cn1c(=O)cc(SCC(=O)NCc2ccc(F)cc2)c2ccccc21`, the EC50 [8] was > 79.4 µM (inactive), the EC50 [9] was > 79.4 µM (not active) and the EC50 [10] was > 79.4 µM (not active).

In the case of `O=C(c1cc(-c2ccc(Cl)cc2Cl)n[nH]1)N1CCCCC1`, the IC50 [11] is reported as > 100 µM (not active), the IC50 [12] is reported as > 100 µM (inactive) and the IC50 [13] is reported as 2.52 µM (active).
